# Laboratory results: patent US7435740B2 (King Pharmaceuticals Research and Development, Inc., priority 2005, dated 2008)
# Where two headings read alike, the source gives them in different places.
# Legend:
# [1] = target: T1, human recombinant A2B adenosine receptor (Homo sapiens, UniProt P29275); assay: cAMP assay in CHO hA2B; type: cell-based; conditions: for IC50: confidence limits in parentheses, read-out: cAMP assay in CHO hA22B IC50; for cAMP assay in CHO hA22B, percentage in parentheses: percentage given after the > bound, meaning not defined in the patent
# T1 sequence (P29275 1-332): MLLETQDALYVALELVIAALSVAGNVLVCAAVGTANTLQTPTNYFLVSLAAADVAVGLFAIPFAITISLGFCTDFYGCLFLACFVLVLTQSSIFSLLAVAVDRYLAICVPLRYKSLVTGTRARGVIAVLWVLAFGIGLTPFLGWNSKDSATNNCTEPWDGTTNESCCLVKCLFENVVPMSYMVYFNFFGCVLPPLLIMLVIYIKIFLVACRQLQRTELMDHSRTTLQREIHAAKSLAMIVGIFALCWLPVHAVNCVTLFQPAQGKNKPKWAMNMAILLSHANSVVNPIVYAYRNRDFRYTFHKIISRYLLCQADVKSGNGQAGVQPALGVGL
# [2] = target: T2, human recombinant A1 adenosine receptor (Homo sapiens, UniProt P30542); assay: [3H]-DPCPX binding to human A1 adenosine receptor expressed in CHO cells; conditions: for [3H] DPCPX binding to hA1, percentage in parentheses: percentage given after the > bound, meaning not defined in the patent
# T2 sequence (P30542 1-326): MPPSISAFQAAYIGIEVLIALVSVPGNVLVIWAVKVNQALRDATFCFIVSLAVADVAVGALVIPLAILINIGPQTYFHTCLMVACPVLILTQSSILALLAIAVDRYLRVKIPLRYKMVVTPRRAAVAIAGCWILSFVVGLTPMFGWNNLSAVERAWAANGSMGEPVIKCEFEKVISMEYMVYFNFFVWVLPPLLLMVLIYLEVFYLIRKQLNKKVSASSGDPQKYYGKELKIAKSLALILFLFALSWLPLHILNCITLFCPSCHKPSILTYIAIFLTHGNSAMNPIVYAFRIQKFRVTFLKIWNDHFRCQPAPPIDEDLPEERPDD
# Description: (§1) For membrane preparation the culture medium was removed and the cells were washed with PBS and scraped off T75 flasks in ice-cold hypotonic buffer (5 mM Tris HCl, 2 mM EDTA, pH 7.4).
# (§2) The cell suspension was homogenized with Polytron and the homogenate was spun for 10 min at 1,000×g. The supernatant was then centrifuged for 30 min at 100,000×g. […] Then the suspension was frozen at −80° C.
# (§3) Ki=IC50/(1+[C*]/KD*), where [C*] is the concentration of the radioligand and KD* its dissociation constant.
# [3] = target: human recombinant A2A adenosine receptors (Homo sapiens, UniProt P29274); assay: Radioligand binding to hA2A receptors expressed in CHO cells; conditions: for [3H] ZM 241385 binding to hA2A receptors, percentage in parentheses: percentage given after the > bound, meaning not defined in the patent
# Sequence of human recombinant A2A adenosine receptors (P29274 whole entry): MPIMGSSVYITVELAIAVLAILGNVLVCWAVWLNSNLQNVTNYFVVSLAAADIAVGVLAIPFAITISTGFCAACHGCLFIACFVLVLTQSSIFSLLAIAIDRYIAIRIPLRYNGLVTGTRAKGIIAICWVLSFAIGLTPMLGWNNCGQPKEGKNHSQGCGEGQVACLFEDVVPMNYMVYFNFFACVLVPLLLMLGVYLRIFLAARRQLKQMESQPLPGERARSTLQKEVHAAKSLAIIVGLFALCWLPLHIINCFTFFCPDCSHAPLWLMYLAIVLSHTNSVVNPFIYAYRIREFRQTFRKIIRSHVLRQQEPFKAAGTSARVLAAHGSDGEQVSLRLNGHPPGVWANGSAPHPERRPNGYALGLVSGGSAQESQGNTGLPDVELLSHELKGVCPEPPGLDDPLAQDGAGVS
# Description: as §1, §2, §3
# [4] = target: T3, human recombinant A3 adenosine receptors (Homo sapiens, UniProt P0DMS8); assay: [3H]-MRE 3008F20 binding to hA3 receptors expressed in CHO cells; conditions: for Ki: CHO cell membranes, 1 nM [3H]-MRE 3008F20, geometric mean, confidence limits in the line below, read-out: [3H] MRE3008F20 binding to hA3 receptors expressed in CHO cells Ki; for [3H] MRE3008F20 binding to hA3 receptors, percentage in parentheses: percentage printed below the > bound, meaning not defined in the patent; for A3 receptor affinity (in words) / selectivity versus the adenosine hA1 subtype (in words): qualitative statement; for selectivity versus the adenosine hA1 subtype (in words): hA3 versus hA1
# T3 construct: expressed in transfected cells; host or cells: CHO cells (membranes)
# T3 sequence (P0DMS8 1-318): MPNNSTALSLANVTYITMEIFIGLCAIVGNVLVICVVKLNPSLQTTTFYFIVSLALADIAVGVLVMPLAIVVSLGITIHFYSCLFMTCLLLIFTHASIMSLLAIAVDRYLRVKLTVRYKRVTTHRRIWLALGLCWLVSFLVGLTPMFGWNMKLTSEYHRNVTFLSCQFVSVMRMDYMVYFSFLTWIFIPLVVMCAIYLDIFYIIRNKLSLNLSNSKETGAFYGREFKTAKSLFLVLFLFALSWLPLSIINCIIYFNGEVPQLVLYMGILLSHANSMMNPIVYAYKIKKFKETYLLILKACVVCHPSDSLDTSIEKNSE
# Description: as §1, §2
# Non-specific binding was defined as binding in the presence of 1 μM MRE 3008F20 and was about 30% of total binding.
# as §3
# [5] = read-out: [3H] DPCPX binding to hA1, CHO cell membranes, 1 nM [3H]-DPCPX, geometric mean with confidence limits in parentheses
SMILES,melting point,IC50 [1],Ki [2],"[3H] DPCPX binding to hA1, percentage in parentheses [2]",Ki [3],"[3H] ZM 241385 binding to hA2A receptors, percentage in parentheses [3]","cAMP assay in CHO hA22B, percentage in parentheses [1]",Ki [4],"[3H] MRE3008F20 binding to hA3 receptors, percentage in parentheses [4]","Ki [2, 5]",A3 receptor affinity (in words) [4],selectivity versus the adenosine hA1 subtype (in words) [4]
"CCCn1c(=O)c2c(nc3[nH]c(C)cn32)n(Cc2ccccc2)c1=O [Compound 10, 1-Benzyl-7-methyl-3-propyl-1H-imidazo[1,2-f]purine-2,4(3H,8H)-dione]",255 °C,2.06 µM,–,–,–,–,–,–,–,–,–,–
"CCCn1c(=O)c2c(nc3n2CC(c2ccccc2)=NN3C)n(Cc2ccccc2)c1=O [Compound 6, 8-Benzyl-1-methyl-3-phenyl-6-propyl-1,4-dihydro-8H-1,2,4a,6,8,9-hexaaza-fluorene-5,7-dione]",–,> 1 µM,> 1 µM,79%,> 1 µM,99%,94%,> 1 µM,(99%),–,–,–
"CCCn1c(=O)c2c(nc3[nH]c(CC)c(C)n32)n(Cc2ccccc2)c1=O [Compound 26, 1-Benzyl-7-ethyl-6-methyl-3-propyl-1H-imidazo[1,2-f]purine-2,4(3H,8H)-dione]",230 °C,–,–,80%,–,97%,73%,0.06 µM,–,–,–,–
"CCCn1c(=O)c2c(nc3[nH]c(C(C)C)cn32)n(Cc2ccccc2)c1=O [Compound 21, 1-Benzyl-7-isopropyl-3-propyl-1H-imidazo[1,2-f]purine-2,4(3H,8H)-dione]",128 to 130 °C,–,–,–,–,91%,77%,0.031 µM,–,0.46 µM,–,–
"CCCn1c(=O)c2c(nc3[nH]c(C4CC4)cn32)n(Cc2ccccc2)c1=O [Compound 23, 1-Benzyl-7-cyclopropyl-3-propyl-1H-imidazo[1,2-f]purine-2,4(3H,8H)-dione]",244 to 245 °C,–,–,–,–,98%,79%,0.023 µM,–,0.35 µM,–,–
"CCCn1c(=O)c2c(nc3n2CC(c2ccccc2)=C3)n(Cc2ccccc2)c1=O [Compound 1, 1-Benzyl-7-phenyl-3-propyl-1H-pyrrolo[1,2-f]purine-2,4(3H,6H)-dione]",–,–,–,75%,–,99%,–,0.2 µM,–,–,–,–
"CCCn1c(=O)c2c(nc3n2CC(C)=C3)n(Cc2ccccc2)c1=O [Compound 17, 1-Benzyl-7-methyl-3-propyl-1H-pyrrolo[1,2-f]purine-2,4(3H,6H)-dione]",–,0.4 µM,3.03 µM,–,> 5 µM,99%,–,0.008 µM,–,–,–,–
"CCCn1c(=O)c2c(nc3[nH]c(-c4ccc(-c5ccccc5)cc4)cn32)n(Cc2ccccc2)c1=O [Compound 4, 1-Benzyl-7-(biphenyl-4-yl)-3-propyl-1H-imidazo[1,2-f]purine-2,4(3H,8H)-dione]",272 °C,–,–,95%,–,98%,–,> 1 µM,(90%),–,–,–
"CCCn1c(=O)c2c(nc3[nH]c(C)c(C)n32)n(Cc2ccccc2)c1=O [Compound 25, 1-Benzyl-6,7-dimethyl-3-propyl-1H-imidazo[1,2-f]purine-2,4(3H,8H)-dione]",259 °C,–,–,84%,–,92%,82%,0.036 µM,–,–,–,–
"CC(C)Cn1c(=O)c2c(nc3[nH]c(-c4ccccc4)cn32)n(CC(C)C)c1=O [Compound 9, 1,3-Diisobutyl-7-phenyl-1H-imidazo[1,2-f]purine-2,4(3H,8H)-dione]",–,> 1 µM,–,–,> 1 µM,86%,99%,0.144 µM,–,0.476 µM,substantial maintenance of A3 receptor affinity,significant loss of selectivity
"CCCn1c(=O)c2c(nc3[nH]c(-c4ccc(OC)cc4)cn32)n(Cc2ccccc2)c1=O [Compound 3, 1-Benzyl-7-(4-methoxyphenyl)-3-propyl-1H-imidazo[1,2-f]purine-2,4(3H,8H)-dione]",257 °C,–,–,99%,–,99%,–,0.055 µM,–,–,–,–
"CCCn1c(=O)c2c(nc3n2CC(CC)=C3)n(Cc2ccccc2)c1=O [Compound 18, 1-Benzyl-7-ethyl-3-propyl-1H-pyrrolo[1,2-f]purine-2,4(3H,6H)-dione]",–,–,–,–,–,–,71%,–,–,–,–,–
"CCCn1c(=O)c2c(nc3[nH]c(-c4ccccc4)cn32)n(CCC)c1=O [Compound 8, 7-Phenyl-1,3-dipropyl-1H-imidazo[1,2-f]purine-2,4(3H,8H)-dione]",–,> 1 µM,–,–,> 1 µM,78%,61%,0.099 µM,–,0.373 µM,substantial maintenance of A3 receptor affinity,significant loss of selectivity
"CCCn1c(=O)c2c(nc3[nH]c(-c4ccc(F)cc4)cn32)n(Cc2ccccc2)c1=O [Compound 5, 1-Benzyl-7-(4-fluorophenyl)-3-propyl-1H-imidazo[1,2-f]purine-2,4(3H,8H)-dione]",250 °C,–,–,90%,–,97%,–,0.022 µM,–,–,–,–
"CCCn1c(=O)c2c(nc3[nH]c(C4CCCCC4)cn32)n(Cc2ccccc2)c1=O [Compound 24, 1-Benzyl-7-cyclohexyl-3-propyl-1H-imidazo[1,2-f]purine-2,4(3H,8H)-dione]",130 to 132 °C,–,–,72%,–,99%,71%,0.555 µM,–,–,–,–
"CCCn1c(=O)c2c(nc3n2CC(c2ccccc2)=NN3CCO)n(Cc2ccccc2)c1=O [Compound 7, 8-Benzyl-1-(2-hydroxy-ethyl)-3-phenyl-6-propyl-1,4-dihydro-8H-1,2,4a,6,8,9-hexaaza-fluorene-5,7-dione]",–,> 1 µM,> 1 µM,91%,> 1 µM,99%,83%,> 1 µM,(99%),–,–,–
"CCCn1c(=O)c2c(nc3[nH]c(-c4ccccc4)cn32)n(Cc2ccccc2)c1=O [Compound 2, 1-Benzyl-7-phenyl-3-propyl-1H-imidazo[1,2-f]purine-2,4(3H,8H)-dione]",255 °C,–,–,83%,–,99%,–,0.115 µM,–,–,–,–
"Cc1cn2c(nc3c2c(=O)n(C)c(=O)n3C)[nH]1 [Compound 27, 1,3,7-Trimethyl-1H-imidazo[1,2-f]purine-2,4(3H,8H)-dione]",–,> 1 µM,> 1 µM,96%,> 1 µM,99%,88%,> 1 µM,(93%),–,–,–
"CCCn1c(=O)c2c(nc3n2C(C)C(C)=C3)n(Cc2ccccc2)c1=O (stereo not shown) [Compound 19, 1-Benzyl-6,7-dimethyl-3-propyl-1H-pyrrolo[1,2-f]purine-2,4(3H,6H)-dione]",–,–,–,65%,–,91%,60%,0.08 µM,–,–,–,–
